One test has as its target recombinant human HDAC6 (Homo sapiens (Human), UniProt Q9UBN7). Put plainly: Enzymatic screening, HDAC6 inhibition (fluorogenic FdL_G substrate). The test is classed as biochemical. The method, boiled down:
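Enzyme was preincubated with compound (8 doses, triplicate, 1% DMSO) in 25 mM Tris-HCl pH 8, 130 mM NaCl, 0.05% Tween-20, 10% glycerol, with BSA. A FLUOR DE LYS-Green substrate was then added, and fluorescence was read after developer plus 2 μM TSA.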

The target of the next test is recombinant human HDAC1 (Homo sapiens (Human), UniProt Q13547). Put plainly: Enzymatic screening, HDAC1 inhibition (fluorogenic FdL_G substrate). The test is classed as biochemical. The method, boiled down: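 Recombinant human HDAC1 inhibition was measured fluorometrically using the FLUOR DE LYS-Green (FdL_G) substrate. Compounds at 8 doses (1% DMSO final) in Tris-HCl pH 8 buffer with NaCl, Tween-20 and glycerol were preincubated in triplicate with enzyme and 1 mg/mL BSA, then given substrate. Developer I plus 2 μM TSA was added, and fluorescence read after 25 minutes in the dark.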

In general, IC50 refers to the concentration at which inhibition is half-maximal.

recombinant human HDAC1, sequence (Q13547 whole entry): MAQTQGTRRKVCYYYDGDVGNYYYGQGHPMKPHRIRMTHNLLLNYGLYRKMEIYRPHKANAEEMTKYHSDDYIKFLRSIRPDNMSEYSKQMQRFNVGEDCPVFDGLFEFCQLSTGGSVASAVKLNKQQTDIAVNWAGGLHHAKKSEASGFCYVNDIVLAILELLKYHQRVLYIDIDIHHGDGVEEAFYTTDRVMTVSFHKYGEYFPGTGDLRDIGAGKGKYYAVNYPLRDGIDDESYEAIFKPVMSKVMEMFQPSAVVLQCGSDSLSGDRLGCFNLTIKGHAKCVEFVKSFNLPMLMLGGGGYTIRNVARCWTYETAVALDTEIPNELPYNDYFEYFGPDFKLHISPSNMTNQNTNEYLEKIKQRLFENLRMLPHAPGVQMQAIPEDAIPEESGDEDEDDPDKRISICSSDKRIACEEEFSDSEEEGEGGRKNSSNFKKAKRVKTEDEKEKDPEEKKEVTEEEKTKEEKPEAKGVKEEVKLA
recombinant human HDAC6, sequence (Q9UBN7 whole entry): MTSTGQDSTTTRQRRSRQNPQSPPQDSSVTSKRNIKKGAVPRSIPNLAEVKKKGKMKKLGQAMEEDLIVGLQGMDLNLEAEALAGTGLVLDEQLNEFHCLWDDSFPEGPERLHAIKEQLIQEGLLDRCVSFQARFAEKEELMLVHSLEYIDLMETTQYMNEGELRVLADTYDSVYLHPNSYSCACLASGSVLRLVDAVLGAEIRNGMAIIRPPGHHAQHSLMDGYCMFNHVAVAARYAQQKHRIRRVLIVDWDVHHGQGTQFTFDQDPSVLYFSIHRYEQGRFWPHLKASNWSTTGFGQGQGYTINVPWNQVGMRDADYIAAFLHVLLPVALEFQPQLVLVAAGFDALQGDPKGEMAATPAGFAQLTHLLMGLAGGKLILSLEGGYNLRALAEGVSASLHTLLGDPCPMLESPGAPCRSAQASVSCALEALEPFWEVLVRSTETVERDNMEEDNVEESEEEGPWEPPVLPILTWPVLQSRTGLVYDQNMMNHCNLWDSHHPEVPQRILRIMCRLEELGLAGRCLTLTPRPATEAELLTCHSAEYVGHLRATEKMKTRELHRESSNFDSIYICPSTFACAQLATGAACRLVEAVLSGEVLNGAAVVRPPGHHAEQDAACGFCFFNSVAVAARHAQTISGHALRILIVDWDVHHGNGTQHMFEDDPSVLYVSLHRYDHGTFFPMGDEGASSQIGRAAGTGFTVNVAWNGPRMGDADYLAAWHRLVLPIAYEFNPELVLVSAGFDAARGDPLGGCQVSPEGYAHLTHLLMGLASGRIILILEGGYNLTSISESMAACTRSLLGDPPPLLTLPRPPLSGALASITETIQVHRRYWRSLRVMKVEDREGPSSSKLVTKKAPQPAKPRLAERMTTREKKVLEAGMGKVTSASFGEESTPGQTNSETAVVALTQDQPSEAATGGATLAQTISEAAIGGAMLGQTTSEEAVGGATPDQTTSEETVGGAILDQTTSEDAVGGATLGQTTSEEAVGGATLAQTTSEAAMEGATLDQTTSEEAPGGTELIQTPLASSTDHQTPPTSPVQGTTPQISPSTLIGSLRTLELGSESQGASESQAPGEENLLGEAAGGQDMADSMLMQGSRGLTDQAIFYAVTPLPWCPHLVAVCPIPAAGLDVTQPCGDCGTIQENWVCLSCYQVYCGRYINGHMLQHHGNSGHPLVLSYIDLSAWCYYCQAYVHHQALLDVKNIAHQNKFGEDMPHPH

Consider `CC(C)(C)OC(=O)NCC(=O)Nc1cccc(-c2cn(Cc3c(F)cc(-c4nnc(C(F)F)o4)cc3F)nn2)c1` [Compd. 172, tert-butyl (2-((3-(1-(4-(5-(difluoromethyl)-1,3,4-oxadiazol-2-yl)-2,6-difluorobenzyl)-1H-1,2,3-triazol-4-yl)phenyl)amino)-2-oxoethyl)carbamate], for which the IC50 at recombinant human HDAC6 was 86 nM; on recombinant human HDAC1, greater than 200000 nM.

Take `Nc1ncnc2sc(-c3cn(Cc4ccc(-c5nnc(C(F)F)o5)cc4F)nn3)cc12` [compound 416, 6-[1-({4-[5-(difluoromethyl)-1,3,4-oxadiazol-2-yl]-2-fluorophenyl}methyl)-1H-1,2,3-triazol-4-yl]thieno[2,3-d]pyrimidin-4-amine]: the values for the IC50 at recombinant human HDAC6 and at recombinant human HDAC1 were 46 nM and 1e+06 nM, respectively.

Regarding `O=C1NCc2ccc(-c3nnnn3Cc3ncc(-c4nnc(C(F)F)o4)cn3)cc21` [compound 298, 6-(1-((5-(5-(difluoromethyl)-1,3,4-oxadiazol-2-yl)pyrimidin-2-yl)methyl)-1H-tetrazol-5-yl)isoindolin-1-one], the results for the IC50 on recombinant human HDAC6 and at recombinant human HDAC1 were 151 nM and greater than 200000 nM, respectively.

`O=C1CCc2ccc(-c3nnn(Cc4ccc(-c5nnc(C(F)F)o5)cc4)n3)cc21` [compound 203, 6-(2-(4-(5-(difluoromethyl)-1,3,4-oxadiazol-2-yl)benzyl)-2H-tetrazol-5-yl)-2,3-dihydro-1H-inden-1-one]: the IC50 at recombinant human HDAC6 was 118 nM; on recombinant human HDAC1 it was greater than 200000 nM.

Regarding `NC(=O)c1cccc(-c2cnn(Cc3ccc(-c4nnc(C(F)F)o4)cn3)c2)c1` [compound 334, 3-[1-[[5-[5-(difluoromethyl)-1,3,4-oxadiazol-2-yl]pyridin-2-yl]methyl]pyrazol-4-yl]benzamide], the IC50 is 65 nM at recombinant human HDAC6 and greater than 1e+06 nM at recombinant human HDAC1.

With `O=[N+]([O-])c1ccccc1-c1nnn(Cc2ccc(-c3nnc(C(F)F)o3)cc2)n1` [compound 150, 2-(difluoromethyl)-5-(4-((5-(2-nitrophenyl)-2H-tetrazol-2-yl)methyl)phenyl)-1,3,4-oxadiazole], the half-maximal inhibitory concentration (IC50) at recombinant human HDAC6 is 64 nM; at recombinant human HDAC1, greater than 200000 nM.

In the case of `O=C(Nc1cc(-c2nnn(Cc3ccc(-c4nnc(C(F)F)o4)cc3)n2)ccc1O)N1CCOCC1` [compound 25, N-(5-(2-(4-(5-(difluoromethyl)-1,3,4-oxadiazol-2-yl)benzyl)-2H-tetrazol-5-yl)-2-hydroxyphenyl)morpholine-4-carboxamide], the IC50 was 7 nM at recombinant human HDAC6 and greater than 200000 nM at recombinant human HDAC1.

For `Nc1cc2cc(-c3cn(Cc4ccc(-c5nnc(C(F)F)o5)cc4Cl)nn3)ccc2cn1` [compound 404, 6-(1-(2-chloro-4-(5-(difluoromethyl)-1,3,4-oxadiazol-2-yl)benzyl)-1H-1,2,3-triazol-4-yl)isoquinolin-3-amine], the IC50 at recombinant human HDAC6 is 178 nM; on recombinant human HDAC1 it was 1e+06 nM.

With `Cn1c(N)nc2cc(-c3nnn(Cc4ncc(-c5nnc(C(F)F)o5)cc4F)n3)ccc21` [compound 370, 5-[2-[[5-[5-(difluoromethyl)-1,3,4-oxadiazol-2-yl]-3-fluoropyridin-2-yl]methyl]tetrazol-5-yl]-1-methylbenzimidazol-2-amine], the results for the IC50 at recombinant human HDAC6 and on recombinant human HDAC1 were 23 nM and greater than 1e+06 nM, respectively.

`O=C1NCc2ccc(-c3cn(Cc4ccc(-c5nnc(C(F)F)o5)cc4)cn3)cc21` [compound 294, 6-(1-(4-(5-(difluoromethyl)-1,3,4-oxadiazol-2-yl)benzyl)-1H-imidazol-4-yl)isoindolin-1-one]: the results for the IC50 on recombinant human HDAC6 and at recombinant human HDAC1 were 78 nM and greater than 200000 nM, respectively.

As to `NCc1ccc(-c2nc(Cc3ccc(-c4nnc(C(F)F)o4)cc3)no2)cc1` [compound 191, (4-(3-(4-(5-(difluoromethyl)-1,3,4-oxadiazol-2-yl)benzyl)-1,2,4-oxadiazol-5-yl)phenyl)methanamine], the IC50 at recombinant human HDAC6 is 102 nM; on recombinant human HDAC1 it was greater than 200000 nM.

For the compound `O=C(Nc1cccc(-c2cnn(Cc3ccc(-c4nnc(C(F)F)o4)cc3)c2)c1)N1CCOCC1` [compound 227, N-(3-(1-(4-(5-(difluoromethyl)-1,3,4-oxadiazol-2-yl)benzyl)-1H-pyrazol-4-yl)phenyl)morpholine-4-carboxamide], the IC50 at recombinant human HDAC6 was 172 nM; on recombinant human HDAC1, greater than 200000 nM.

Turning to `FC(F)c1nnc(-c2ccc(Cn3nnc(-c4ccc(CN5CCCCC5)cc4)n3)cc2)o1` [compound 87, 2-(difluoromethyl)-5-(4-((5-(4-(piperidin-1-ylmethyl)phenyl)-2H-tetrazol-2-yl)methyl)phenyl)-1,3,4-oxadiazole], the IC50 at recombinant human HDAC6 is 34 nM; on recombinant human HDAC1, greater than 200000 nM.

Turning to `FC(F)c1nnc(-c2ccc(Cn3nnc(-c4ccc(N5CCNCC5)cc4)n3)cc2)o1` [compound 103, 2-(difluoromethyl)-5-(4-((5-(4-(piperazin-1-yl)phenyl)-2H-tetrazol-2-yl)methyl)phenyl)-1,3,4-oxadiazole], the results for the IC50 on recombinant human HDAC6 and at recombinant human HDAC1 were 39 nM and greater than 200000 nM, respectively.

Consider `Cn1c(N)nc2cc(-c3cnn(Cc4ccc(-c5nnc(C(F)F)o5)cn4)c3)ccc21` [compound 320, 5-[1-[[5-[5-(difluoromethyl)-1,3,4-oxadiazol-2-yl]pyridin-2-yl]methyl]pyrazol-4-yl]-1-methylbenzimidazol-2-amine], for which the results for the IC50 at recombinant human HDAC6 and on recombinant human HDAC1 were 28 nM and greater than 1e+06 nM, respectively.

With `Cn1c(N)nc2cc(-c3cn(Cc4ccc(-c5nnc(C(F)F)o5)cc4)cn3)ccc21` [compound 329, 5-[1-[[4-[5-(difluoromethyl)-1,3,4-oxadiazol-2-yl]phenyl]methyl]imidazol-4-yl]-1-methylbenzimidazol-2-amine], the IC50 was 27 nM at recombinant human HDAC6 and greater than 1e+06 nM on recombinant human HDAC1.

As for `Cn1c(Sc2ccc(-c3nnc(C(F)F)o3)cc2)nnc1-c1ccc(N)nc1` [compound 285, 5-(5-((4-(5-(difluoromethyl)-1,3,4-oxadiazol-2-yl)phenyl)thio)-4-methyl-4H-1,2,4-triazol-3-yl)pyridin-2-amine], the IC50 is 491 nM on recombinant human HDAC6 and greater than 200000 nM at recombinant human HDAC1.

As to `[2H]C([2H])(c1ccc(-c2nnc(C(F)F)o2)c(F)c1F)n1cc(-c2ccc(N)nc2)nn1` [compound 385, 5-[1-[dideuterio-[4-[5-(difluoromethyl)-1,3,4-oxadiazol-2-yl]-2,3-difluorophenyl]methyl]triazol-4-yl]pyridin-2-amine], the IC50 at recombinant human HDAC6 was determined as 30 nM; on recombinant human HDAC1 it was 1e+06 nM.

On to `Nc1cccc(-c2cn(Cc3ccc(-c4nnc(C(F)F)o4)cc3)nn2)c1` [compound 192, 3-(1-(4-(5-(difluoromethyl)-1,3,4-oxadiazol-2-yl)benzyl)-1H-1,2,3-triazol-4-yl)aniline], for which the IC50 at recombinant human HDAC6 was 102 nM; at recombinant human HDAC1, greater than 200000 nM.

As to `FC(F)c1nnc(-c2ccc(Cn3cc(-c4ccc5nc(N6CCCC6)[nH]c5c4)nn3)cc2)o1` [compd. 190, 2-(difluoromethyl)-5-(4-((4-(2-(pyrrolidin-1-yl)-1H-benzo[d]imidazol-6-yl)-1H-1,2,3-triazol-1-yl)methyl)phenyl)-1,3,4-oxadiazole], the IC50 at recombinant human HDAC6 is 99 nM; at recombinant human HDAC1, greater than 200000 nM.

Turning to `C[C@@H](c1ccc(-c2nnc(C(F)F)o2)cn1)n1cc(-c2ccc(N)nc2)nn1` [Compd. 171, (S)-5-(1-(1-(5-(5-(difluoromethyl)-1,3,4-oxadiazol-2-yl)pyridin-2-yl)ethyl)-1H-1,2,3-triazol-4-yl)pyridin-2-amine], the figures for the IC50 at recombinant human HDAC6 and at recombinant human HDAC1 were 82 nM and greater than 200000 nM, respectively.

`[2H]C([2H])(c1ccc(-c2nnc(C(F)F)o2)cc1)n1cc(-c2ccc(N)nc2)nn1` [compound 356, 5-[1-[dideuterio-[4-[5-(difluoromethyl)-1,3,4-oxadiazol-2-yl]phenyl]methyl]triazol-4-yl]pyridin-2-amine]: the IC50 was 43 nM on recombinant human HDAC6 and greater than 1e+06 nM on recombinant human HDAC1.

Turning to `Nc1nc2cc(-c3cn(Cc4ccc(-c5nnc(C(F)F)o5)cc4)cn3)ccc2o1` [compd. 309, 5-[1-[[4-[5-(difluoromethyl)-1,3,4-oxadiazol-2-yl]phenyl]methyl]imidazol-4-yl]-1,3-benzoxazol-2-amine], the figures for the IC50 at recombinant human HDAC6 and at recombinant human HDAC1 were 69 nM and greater than 1e+06 nM, respectively.

With `FC(F)c1nnc(-c2ccc(Cn3nnc(C4(c5ccccc5)CC4)n3)cc2)o1` [compound 256, 2-(difluoromethyl)-5-(4-((5-(1-phenylcyclopropyl)-2H-tetrazol-2-yl)methyl)phenyl)-1,3,4-oxadiazole], the IC50 was 393 nM at recombinant human HDAC6 and greater than 200000 nM on recombinant human HDAC1.

Turning to `Cn1c(N)nc2cc(-c3cn(Cc4ccc(-c5nnc(C(F)F)o5)c(F)c4)nn3)ccc21` [compound 346, 5-[1-[[4-[5-(difluoromethyl)-1,3,4-oxadiazol-2-yl]-3-fluorophenyl]methyl]triazol-4-yl]-1-methylbenzimidazol-2-amine], the values for the IC50 on recombinant human HDAC6 and at recombinant human HDAC1 were 26 nM and greater than 1e+06 nM, respectively.

For `Nc1ccc(-n2cc(Cc3ccc(-c4nnc(C(F)F)o4)cc3)nn2)cc1` [compound 315, 4-[4-[[4-[5-(difluoromethyl)-1,3,4-oxadiazol-2-yl]phenyl]methyl]triazol-1-yl]aniline], the IC50 on recombinant human HDAC6 was 668 nM; on recombinant human HDAC1, greater than 1e+06 nM.

In the case of `Fc1c(Cn2nnc(-c3cccc(-c4nc5c([nH]4)CCNC5)c3)n2)ccc(-c2nnc(C(F)F)o2)c1F` [compound 355, 2-(difluoromethyl)-5-[2,3-difluoro-4-[[5-[3-(4,5,6,7-tetrahydro-1H-imidazo[4,5-c]pyridin-2-yl)phenyl]tetrazol-2-yl]methyl]phenyl]-1,3,4-oxadiazole], the IC50 at recombinant human HDAC6 was 62 nM; at recombinant human HDAC1, greater than 1e+06 nM.

As for `O=C1NCc2ccc(-c3nnn(Cc4ncc(-c5nnc(C(F)F)o5)cn4)n3)cc21` [compound 107, 6-(2-((5-(5-(difluoromethyl)-1,3,4-oxadiazol-2-yl)pyrimidin-2-yl)methyl)-2H-tetrazol-5-yl)isoindolin-1-one], the IC50 was 41 nM at recombinant human HDAC6 and greater than 200000 nM at recombinant human HDAC1.

Source of the values: US20230286970A1, “NOVEL OXADIAZOLE-BASED SELECTIVE HDAC6 INHIBITORS” (ITALFARMACO S.P.A., priority 2020, published 2023).
